Reference: PubChem BioAssay (NCI)
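Results reflect a 48-hour exposure of cells in 96-well plates to compound at five concentrations. At the GI50, growth is halved. TGI: total growth inhibition.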

Legend:
Assay in all cases: DTP human tumour cell line panel, 48 h
CAKI-1 renal = tested on: CAKI-1 renal
CCRF-CEM leukemia = tested on: CCRF-CEM leukemia
EKVX NSCLC = tested on: EKVX NSCLC
HOP-92 NSCLC = tested on: HOP-92 NSCLC
IGROV1 ovarian = tested on: IGROV1 ovarian
K-562 leukemia = tested on: K-562 leukemia
NCI-H226 lung = tested on: NCI-H226 lung
NCI-H23 lung = tested on: NCI-H23 lung
RPMI-8226 leukemia = tested on: RPMI-8226 leukemia
SK-MEL-5 melanoma = tested on: SK-MEL-5 melanoma

| Compound | TGI (CAKI-1 renal) [µM] | TGI (CCRF-CEM leukemia) [µM] | TGI (EKVX NSCLC) [µM] | TGI (HOP-92 NSCLC) [µM] | TGI (IGROV1 ovarian) [µM] | TGI (K-562 leukemia) [µM] | TGI (NCI-H226 lung) [µM] | TGI (NCI-H23 lung) [µM] | TGI (RPMI-8226 leukemia) [µM] | TGI (SK-MEL-5 melanoma) [µM] | GI50 (CAKI-1 renal) [µM] | GI50 (CCRF-CEM leukemia) [µM] | GI50 (EKVX NSCLC) [µM] | GI50 (HOP-92 NSCLC) [µM] | GI50 (IGROV1 ovarian) [µM] | GI50 (K-562 leukemia) [µM] | GI50 (NCI-H226 lung) [µM] | GI50 (NCI-H23 lung) [µM] | GI50 (RPMI-8226 leukemia) [µM] | GI50 (SK-MEL-5 melanoma) [µM] |
| --- | --- | --- | --- | --- | --- | --- | --- | --- | --- | --- | --- | --- | --- | --- | --- | --- | --- | --- | --- | --- |
| C=CCc1cccc2cc(C(=O)Nc3nc(C45CC6CC(CC(C6)C4)C5)cs3)c(=O)oc12 | 41.4 | > 100 | > 100 | 43.1 | 94.5 | > 100 | > 100 | 59.2 | > 100 | > 100 |  |  |  |  |  |  |  |  |  |  |
| Cc1ccc(CC(=O)Nc2ccc(NC(=O)CNC(=O)/C=C/c3ccc(-c4ccccc4)cc3)cc2C(=O)c2ccccc2)cc1 | 20.4 | 17.1 | 15.8 | 15.4 | 21.7 | 10.3 | 8.39 | 4.71 | 29.2 | 6.32 |  |  |  |  |  |  |  |  |  |  |
| OCCNc1nc2c(N3CCCC3)nc(N3CCNCC3)nc2nc1NCc1ccccc1 | 31.4 | 30 | 26.9 | 21.8 | 25.5 | 30.1 | 35.2 | 34.2 | 38.4 | 26.1 |  |  |  |  |  |  |  |  |  |  |
| CCCC1C(C#N)(C#N)C(C#N)=C(N)C1(C)C(C)=O (stereo not given) | 21.6 | > 100 | > 100 | > 100 | > 100 | > 100 | > 100 | > 100 | > 100 | > 100 |  |  |  |  |  |  |  |  |  |  |
| O=C(O)C(CO)NC(=O)C1C(C(=O)O)C(c2ccccc2[N+](=O)[O-])C=C(c2ccco2)N1c1ccncc1 (stereo not given) | 24.3 | 5.32 | 32.7 | 25.7 | 4.15 | 5.74 | 39.1 | 19.9 | 4.22 | 10.2 |  |  |  |  |  |  |  |  |  |  |
| Cc1ccc(Nc2nc(NS(=O)(=O)c3cc(C)c(Cl)cc3S)n[nH]2)cc1 | > 100 | > 100 | > 100 | > 100 | > 100 | > 100 | > 100 | > 100 | > 100 | > 100 |  |  |  |  |  |  |  |  |  |  |
| Clc1ccc(-c2nn3c(C45CC6CC(CC(C6)C4)C5)nnc3s2)cc1 | > 100 | > 100 | > 100 | > 100 | > 100 | > 100 | > 100 | > 100 | > 100 | > 100 |  |  |  |  |  |  |  |  |  |  |
| COC1CCC(n2c([C@@H]3CCCC(=O)N3c3ccc(F)c(F)c3)nc3cc(-c4c(C)noc4C)ccc32)CC1 (stereo not given in full) | 12.7 | 57.7 | > 100 | 14.2 | 25.4 | > 100 | 19.7 | 40.5 | 8.21 | 18.6 | 0.64 | 4.66 | 3.97 | 2.04 | 4.61 | 2.8 | 4.31 | 13.3 | 0.703 | 5.81 |
| Nc1ccc(-c2nc3cc(F)ccc3s2)cc1 | > 100 | > 100 | > 46.6 | > 93.1 | > 77.9 | > 100 | > 100 | > 46.5 | > 100 | > 100 |  |  |  |  |  |  |  |  |  |  |
| COc1c(Cl)c(Cl)c(OC)c2c1C(=O)C=CC2=O | 59.1 | 53.5 | 31.8 | 28.8 | 56.9 | 64.4 | > 100 | > 100 | 73.1 | > 100 |  |  |  |  |  |  |  |  |  |  |
| O=[N+]([O-])c1ccc(-[n+]2ccc3ccccc3c2)c([N+](=O)[O-])c1 | 8.74 | 5.38 | 19.4 | 5.29 | 8.61 | > 23.2 | 43.6 | 6.03 | 6.68 | 6.56 |  |  |  |  |  |  |  |  |  |  |
| CC(CN(C)C)C(=O)/C=C/c1ccc(Cl)c(Cl)c1 (stereo not given) | 4.42 | 2.74 | 3.11 | 3.48 | 3.73 | > 100 | 5.57 | 5.11 | > 100 | 2.99 |  |  |  |  |  |  |  |  |  |  |
| CC(C)(C)OC(=O)N1C/C=C\C(=O)C2(OCCO2)c2ccccc21 | > 100 | 57 | > 100 | 44.2 | 33.4 | 57.1 | 38.9 | > 100 | 54.1 | 31.7 |  |  |  |  |  |  |  |  |  |  |
| CC1=CC(=O)/C(=C/N2CCNC2=S)C(=O)O1 | > 100 | > 100 | > 100 | > 100 | > 100 | > 100 | > 100 | > 100 | > 100 | > 100 |  |  |  |  |  |  |  |  |  |  |
| Cc1nc2ccccc2cc1C[N+]12CN3CN(CN(C3)C1)C2 | 59.8 | 23.7 | 50 | > 100 | > 100 | > 100 | 52.8 | 33.9 | > 100 | 32.8 |  |  |  |  |  |  |  |  |  |  |
| CN1CCN(c2c(O)c3c(c(O)c2Cl)C(=O)C=CC3=O)CC1 | 1.56 | 0.41 | 3.04 | 0.598 | 2.6 | 0.659 | 4.08 | 1.54 | 2.34 | 1.11 |  |  |  |  |  |  |  |  |  |  |
| CCOC(=O)CN(Cc1ccccc1)Cc1c(C(=O)c2ccccc2)c2ccccc2n1C(=O)c1ccccc1 | > 100 | > 100 | > 100 | > 100 | > 100 | > 100 | > 100 | > 100 | > 100 | > 100 |  |  |  |  |  |  |  |  |  |  |
| COc1cc([C@@H]2c3cc4c(cc3[C@@H](Nc3ccc(NC(=O)c5cc(NC(=O)c6cc([N+](=O)[O-])cn6C)cn5C)cc3)[C@H]3COC(=O)[C@H]23)OCO4)cc(OC)c1O | > 28.5 | > 37.8 | > 64.2 | > 39.2 | > 39 | 14.4 | > 44.4 | > 48.7 | 0.486 | > 33.5 |  |  |  |  |  |  |  |  |  |  |
| COc1cnnc2c(C)c(-c3ccccc3)nn12 | > 100 | > 100 | > 100 | > 100 | > 100 | > 100 | > 100 | > 100 | > 100 | > 100 |  |  |  |  |  |  |  |  |  |  |
| COc1cc(C2c3cc4c(cc3OC(N3CCOCC3)C2C)OCO4)cc(OC)c1OC(C)=O (stereo not given) | > 100 | > 100 | > 100 | > 100 | > 100 | 49.2 | 62.7 | > 95.2 | > 100 | > 51 |  |  |  |  |  |  |  |  |  |  |
| CC(C)C(/C=C/c1ccccc1)=N\NC(=S)NN | > 100 | > 89.9 | > 100 | > 100 | > 100 | > 100 | > 100 | > 100 | > 100 | > 100 |  |  |  |  |  |  |  |  |  |  |
| CCOC(=O)C1=CN(C(=O)c2ccccc2)CCC1Cc1ccccc1 (stereo not given) | > 100 | 54.5 | > 100 | 54.5 | > 100 | 77.3 | > 100 | > 100 | 36.6 | 28.3 |  |  |  |  |  |  |  |  |  |  |
| CCOC(=O)/C=C(/C(=O)OCC)n1ccc(=O)[nH]c1=O | 2.3 | 3.99 | 23 | 4.32 | 31.1 | 6.55 | 14.5 | 30.4 | 11.3 | 31 |  |  |  |  |  |  |  |  |  |  |
| Cc1nn(C(=O)c2ccc(Cl)cc2)c2c1C(c1ccco1)SC(N)=N2 (stereo not given) | > 10 | > 10 | > 10 | > 10 | > 10 | > 10 | > 10 | > 10 | > 10 | > 10 |  |  |  |  |  |  |  |  |  |  |
| C=C1[C@H](OCC(C)C)[C@@H](OC(=O)C(C)CC)[C@@H](O)C(C)(C)/C=C/[C@H](C)C(=O)[C@@]2(O)C[C@H](C)[C@H](O)[C@@H]2[C@H]1OC(=O)C(C)CC (stereo not given in full) | > 18.7 | > 9.76 | > 20 | > 20 | > 20 | > 13.5 | > 20 | > 15.8 | 12 | > 10.8 |  |  |  |  |  |  |  |  |  |  |
| COC1=CCC2=C(CCN(C(=O)C3CCC3)C2Cc2ccc(OC)c(O)c2)C1 (stereo not given) | > 100 | > 100 | 88.9 | 79.4 | > 100 | > 100 | > 100 | 28.7 | > 100 | 73.3 |  |  |  |  |  |  |  |  |  |  |
| CC(=O)OC1C(O)C(C)OC(OC(=O)C2CCC3C(C2)OC2(CC(OC(=O)/C=C/c4ccccc4)C(C)CO2)C32CO2)C1OC1OC(C)C(O)C(O)C1O (stereo not given) | 9.74 | 1.26 | 0.246 | 0.0396 | 0.131 | 2.29 | 0.1 | 0.22 | 1.15 | 0.0897 |  |  |  |  |  |  |  |  |  |  |
| Cc1ccsc1/C=N/Nc1ccccn1 | > 100 | > 100 | 96.5 | > 100 | > 100 | > 100 | > 100 | > 100 | 56.6 | 54.4 |  |  |  |  |  |  |  |  |  |  |
| CSc1nc(=O)c(C#N)c(-c2ccccc2)n1C1OC(COC(C)=O)C(OC(C)=O)C(OC(C)=O)C1OC(C)=O (stereo not given) | > 100 | > 100 | > 100 | > 100 | > 100 | > 100 | > 100 | > 100 | > 100 | > 100 |  |  |  |  |  |  |  |  |  |  |
